Assay results from patent US10201586B2 (dated 2019).
Where a SMILES comes first, the peptide text is derived from it.

Tests used:
TFPI [1] = biological target: T1, TFPI (Homo sapiens, UniProt P10646); experiment: IC50 [nM]
Target sequence in this assay (P10646 29-304 limits assumed): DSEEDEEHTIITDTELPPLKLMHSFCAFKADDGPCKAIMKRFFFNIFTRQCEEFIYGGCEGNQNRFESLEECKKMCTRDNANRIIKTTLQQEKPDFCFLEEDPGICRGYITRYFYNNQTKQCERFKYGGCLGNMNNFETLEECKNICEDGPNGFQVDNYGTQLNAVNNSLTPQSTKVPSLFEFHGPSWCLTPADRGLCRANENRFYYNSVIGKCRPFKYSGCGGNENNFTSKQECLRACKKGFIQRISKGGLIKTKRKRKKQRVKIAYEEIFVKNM

TFPI [2] = biological target: T1, TFPI; experiment: % Inhibition @ 2.5µM
TFPI [3] = biological target: T1, TFPI; experiment: Extrinsic Tenase Inhibition assay | % Inhibition @ 2.5µM

An IC50 (TFPI [1]) of 13.5 µM was found for CSCC[C@H](NC(=O)[C@H](CCC(=O)O)NC(=O)[C@H](CCCCN)NC(=O)[C@H](CO)NC(=O)[C@H](CCCNC(=N)N)NC(=O)[C@H](CCCCN)NC(=O)[C@H](CO)NC(=O)[C@@H](NC(=O)[C@H](Cc1c[nH]cn1)NC(=O)[C@H](CC(C)C)NC(=O)[C@H](CCC(N)=O)NC(=O)[C@@H](NC(=O)[C@H](C)NC(=O)[C@H](CC(C)C)NC(=O)[C@@H]1CCCN1C(=O)[C@H](Cc1ccccc1)NC(=O)[C@H](CO)NC(=O)[C@H](C)NC(=O)[C@H](Cc1ccc(O)cc1)NC(=O)CNC(=O)[C@H](CO)NC(C)=O)C(C)C)C(C)C)C(=O)N[C@@H](C)C(=O)N[C@@H](CC(C)C)C(=O)N[C@@H](C)C(=O)N[C@@H](CCCNC(=N)N)C(=O)N[C@@H](CC(C)C)C(=O)N[C@@H](C)C(=O)N[C@@H](Cc1ccc(O)cc1)C(=O)N[C@@H](CCCCN)C(=O)N[C@H](C(=O)N[C@@H](CO)C(N)=O)[C@@H](C)O [JBT0686 | 2140] (Ac-SGYASFPLAVQLHVSKRSKEMALARLAYKTS-NH2) in this work.

An IC50 (TFPI [1]) of 9.13 µM was found for CSCC[C@H](NC(=O)[C@H](CCC(=O)O)NC(=O)[C@H](CCCCN)NC(=O)[C@H](CO)NC(=O)[C@H](CCCNC(=N)N)NC(=O)[C@H](CCCCN)NC(=O)[C@H](CO)NC(=O)[C@@H](NC(=O)[C@H](Cc1c[nH]cn1)NC(=O)[C@H](CC(C)C)NC(=O)[C@H](CCC(N)=O)NC(=O)[C@@H](NC(=O)[C@H](C)NC(=O)[C@H](CC(C)C)NC(=O)[C@@H]1CCCN1C(=O)[C@H](Cc1ccccc1)NC(=O)[C@H](CO)NC(=O)[C@H](C)NC(=O)[C@H](Cc1ccc(O)cc1)NC(=O)CNC(=O)[C@H](CO)NC(C)=O)C(C)C)C(C)C)C(=O)N[C@@H](C)C(=O)N[C@@H](CC(C)C)C(=O)N[C@@H](C)C(=O)N[C@@H](CCCNC(=N)N)C(=O)N[C@@H](C)C(=O)N[C@@H](Cc1ccc(O)cc1)C(=O)N[C@@H](Cc1ccc(O)cc1)C(=O)N[C@@H](CCCCN)C(=O)N[C@H](C(=O)N[C@@H](CO)C(N)=O)[C@@H](C)O [JBT0685 | 2021] (Ac-SGYASFPLAVQLHVSKRSKEMALARAYYKTS-NH2) in this work.

With “Ac-SGYASFPLAVQLHVSARSKEMALARLYYKTS-NH2 (SEQ ID NO: 2136) [JBT0675]” the “% Inhibition @ […]” value (TFPI [2]) was 0% and the “Extrinsic Tenase Inhibition assay | % Inhibition @ […]” value (TFPI [3]) was 7%.

An IC50 (TFPI [1]) of 16.2 µM was found for CSCC[C@H](NC(=O)[C@H](CCC(=O)O)NC(=O)[C@H](CCCCN)NC(=O)[C@H](CO)NC(=O)[C@H](CCCNC(=N)N)NC(=O)[C@H](CCCCN)NC(=O)[C@H](CO)NC(=O)[C@@H](NC(=O)[C@H](Cc1c[nH]cn1)NC(=O)[C@H](CC(C)C)NC(=O)[C@H](CCC(N)=O)NC(=O)[C@@H](NC(=O)[C@H](C)NC(=O)[C@H](CC(C)C)NC(=O)[C@@H]1CCCN1C(=O)[C@H](Cc1ccccc1)NC(=O)[C@H](CO)NC(=O)[C@H](C)NC(=O)[C@H](Cc1ccc(O)cc1)NC(=O)CNC(=O)[C@H](CO)NC(=O)[C@H](CO)NC(=O)CN)C(C)C)C(C)C)C(=O)N[C@@H](C)C(=O)N[C@@H](CC(C)C)C(=O)N[C@@H](C)C(=O)N[C@@H](CCCNC(=N)N)C(=O)N[C@@H](CC(C)C)C(=O)N[C@@H](Cc1ccc(O)cc1)C(=O)N[C@@H](Cc1ccc(O)cc1)C(=O)N[C@@H](CCCCN)C(=O)N[C@H](C(=O)N[C@@H](CO)C(=O)O)[C@@H](C)O [JBT0788] (H-GSSGYASFPLAVQLHVSKRSKEMALARLYYKTS-OH) in this work.

An IC50 (TFPI [1]) of 1.91 µM was found for CSCC[C@H](NC(=O)[C@H](CCC(=O)O)NC(=O)[C@H](CCCCN)NC(=O)[C@H](C)NC(=O)[C@H](CCCNC(=N)N)NC(=O)[C@H](CCCCN)NC(=O)[C@H](CO)NC(=O)[C@@H](NC(=O)[C@H](Cc1c[nH]cn1)NC(=O)[C@H](CC(C)C)NC(=O)[C@H](CCC(N)=O)NC(=O)[C@@H](NC(=O)[C@H](C)NC(=O)[C@H](CC(C)C)NC(=O)[C@@H]1CCCN1C(=O)[C@H](Cc1ccccc1)NC(=O)[C@H](CO)NC(=O)[C@H](C)NC(=O)[C@H](Cc1ccc(O)cc1)NC(=O)CNC(=O)[C@H](CO)NC(C)=O)C(C)C)C(C)C)C(=O)N[C@@H](C)C(=O)N[C@@H](CC(C)C)C(=O)N[C@@H](C)C(=O)N[C@@H](CCCNC(=N)N)C(=O)N[C@@H](CC(C)C)C(=O)N[C@@H](Cc1ccc(O)cc1)C(=O)N[C@@H](Cc1ccc(O)cc1)C(=O)N[C@@H](CCCCN)C(=O)N[C@H](C(=O)N[C@@H](CO)C(N)=O)[C@@H](C)O [JBT0677 | 2009] (Ac-SGYASFPLAVQLHVSKRAKEMALARLYYKTS-NH2) in this work.

An IC50 (TFPI [1]) of 37.4 µM was found for CSCC[C@H](NC(=O)[C@H](CCC(=O)O)NC(=O)[C@H](CCCCN)NC(=O)[C@H](CO)NC(=O)[C@H](C)NC(=O)[C@H](CCCCN)NC(=O)[C@H](CO)NC(=O)[C@@H](NC(=O)[C@H](Cc1c[nH]cn1)NC(=O)[C@H](CC(C)C)NC(=O)[C@H](CCC(N)=O)NC(=O)[C@@H](NC(=O)[C@H](C)NC(=O)[C@H](CC(C)C)NC(=O)[C@@H]1CCCN1C(=O)[C@H](Cc1ccccc1)NC(=O)[C@H](CO)NC(=O)[C@H](C)NC(=O)[C@H](Cc1ccc(O)cc1)NC(=O)CNC(=O)[C@H](CO)NC(C)=O)C(C)C)C(C)C)C(=O)N[C@@H](C)C(=O)N[C@@H](CC(C)C)C(=O)N[C@@H](C)C(=O)N[C@@H](CCCNC(=N)N)C(=O)N[C@@H](CC(C)C)C(=O)N[C@@H](Cc1ccc(O)cc1)C(=O)N[C@@H](Cc1ccc(O)cc1)C(=O)N[C@@H](CCCCN)C(=O)N[C@H](C(=O)N[C@@H](CO)C(N)=O)[C@@H](C)O [JBT0676 | 2137] (Ac-SGYASFPLAVQLHVSKASKEMALARLYYKTS-NH2) in this work.

An IC50 (TFPI [1]) of 2.51 µM was found for CSCC[C@H](NC(=O)[C@H](CCC(=O)O)NC(=O)[C@H](CCCCN)NC(=O)[C@H](CO)NC(=O)[C@H](CCCNC(=N)N)NC(=O)[C@H](CCCCN)NC(=O)[C@H](CO)NC(=O)[C@@H](NC(=O)[C@H](Cc1c[nH]cn1)NC(=O)[C@H](CC(C)C)NC(=O)[C@H](C)NC(=O)[C@@H](NC(=O)[C@H](C)NC(=O)[C@H](CC(C)C)NC(=O)[C@@H]1CCCN1C(=O)[C@H](Cc1ccccc1)NC(=O)[C@H](CO)NC(=O)[C@H](C)NC(=O)[C@H](Cc1ccc(O)cc1)NC(=O)CNC(=O)[C@H](CO)NC(C)=O)C(C)C)C(C)C)C(=O)N[C@@H](C)C(=O)N[C@@H](CC(C)C)C(=O)N[C@@H](C)C(=O)N[C@@H](CCCNC(=N)N)C(=O)N[C@@H](CC(C)C)C(=O)N[C@@H](Cc1ccc(O)cc1)C(=O)N[C@@H](Cc1ccc(O)cc1)C(=O)N[C@@H](CCCCN)C(=O)N[C@H](C(=O)N[C@@H](CO)C(N)=O)[C@@H](C)O [JBT0670 | 2007] (Ac-SGYASFPLAVALHVSKRSKEMALARLYYKTS-NH2) in this work.

An IC50 (TFPI [1]) of 18.3 µM was found for CSCC[C@H](NC(=O)[C@H](CCC(=O)O)NC(=O)[C@H](CCCCN)NC(=O)[C@H](CO)NC(=O)[C@H](CCCNC(=N)N)NC(=O)[C@H](C)NC(=O)[C@H](CO)NC(=O)[C@@H](NC(=O)[C@H](Cc1c[nH]cn1)NC(=O)[C@H](CC(C)C)NC(=O)[C@H](CCC(N)=O)NC(=O)[C@@H](NC(=O)[C@H](C)NC(=O)[C@H](CC(C)C)NC(=O)[C@@H]1CCCN1C(=O)[C@H](Cc1ccccc1)NC(=O)[C@H](CO)NC(=O)[C@H](C)NC(=O)[C@H](Cc1ccc(O)cc1)NC(=O)CNC(=O)[C@H](CO)NC(C)=O)C(C)C)C(C)C)C(=O)N[C@@H](C)C(=O)N[C@@H](CC(C)C)C(=O)N[C@@H](C)C(=O)N[C@@H](CCCNC(=N)N)C(=O)N[C@@H](CC(C)C)C(=O)N[C@@H](Cc1ccc(O)cc1)C(=O)N[C@@H](Cc1ccc(O)cc1)C(=O)N[C@@H](CCCCN)C(=O)N[C@H](C(=O)N[C@@H](CO)C(N)=O)[C@@H](C)O [JBT0675 | 2136] (Ac-SGYASFPLAVQLHVSARSKEMALARLYYKTS-NH2) in this work.

An IC50 (TFPI [1]) of 13.8 µM was found for CSCC[C@H](NC(=O)[C@H](CCC(=O)O)NC(=O)[C@H](CCCCN)NC(=O)[C@H](CO)NC(=O)[C@H](CCCNC(=N)N)NC(=O)[C@H](CCCCN)NC(=O)[C@H](CO)NC(=O)[C@@H](NC(=O)[C@H](Cc1c[nH]cn1)NC(=O)[C@H](CC(C)C)NC(=O)[C@H](CCC(N)=O)NC(=O)[C@@H](NC(=O)[C@H](C)NC(=O)[C@H](CC(C)C)NC(=O)[C@@H]1CCCN1C(=O)[C@H](Cc1ccccc1)NC(=O)[C@H](CO)NC(=O)[C@H](C)NC(=O)[C@H](C)NC(=O)CNC(=O)[C@H](CO)NC(C)=O)C(C)C)C(C)C)C(=O)N[C@@H](C)C(=O)N[C@@H](CC(C)C)C(=O)N[C@@H](C)C(=O)N[C@@H](CCCNC(=N)N)C(=O)N[C@@H](CC(C)C)C(=O)N[C@@H](Cc1ccc(O)cc1)C(=O)N[C@@H](Cc1ccc(O)cc1)C(=O)N[C@@H](CCCCN)C(=O)N[C@H](C(=O)N[C@@H](CO)C(N)=O)[C@@H](C)O [JBT0662 | 2131] (Ac-SGAASFPLAVQLHVSKRSKEMALARLYYKTS-NH2) in this work.

An IC50 (TFPI [1]) of 1.17 µM was found for CSCC[C@H](NC(=O)[C@H](CCC(=O)O)NC(=O)[C@H](CCCCN)NC(=O)[C@H](CO)NC(=O)[C@H](CCCNC(=N)N)NC(=O)[C@H](CCCCN)NC(=O)[C@H](C)NC(=O)[C@@H](NC(=O)[C@H](Cc1c[nH]cn1)NC(=O)[C@H](CC(C)C)NC(=O)[C@H](CCC(N)=O)NC(=O)[C@@H](NC(=O)[C@H](C)NC(=O)[C@H](CC(C)C)NC(=O)[C@@H]1CCCN1C(=O)[C@H](Cc1ccccc1)NC(=O)[C@H](CO)NC(=O)[C@H](C)NC(=O)[C@H](Cc1ccc(O)cc1)NC(=O)CNC(=O)[C@H](CO)NC(C)=O)C(C)C)C(C)C)C(=O)N[C@@H](C)C(=O)N[C@@H](CC(C)C)C(=O)N[C@@H](C)C(=O)N[C@@H](CCCNC(=N)N)C(=O)N[C@@H](CC(C)C)C(=O)N[C@@H](Cc1ccc(O)cc1)C(=O)N[C@@H](Cc1ccc(O)cc1)C(=O)N[C@@H](CCCCN)C(=O)N[C@H](C(=O)N[C@@H](CO)C(N)=O)[C@@H](C)O [JBT0674 | 2008] (Ac-SGYASFPLAVQLHVAKRSKEMALARLYYKTS-NH2) in this work.

An IC50 (TFPI [1]) of 5.84 µM was found for CSCC[C@H](NC(=O)[C@H](CCC(=O)O)NC(=O)[C@H](CCCCN)NC(=O)[C@H](CO)NC(=O)[C@H](CCCNC(=N)N)NC(=O)[C@H](CCCCN)NC(=O)[C@H](CO)NC(=O)[C@@H](NC(=O)[C@H](Cc1c[nH]cn1)NC(=O)[C@H](C)NC(=O)[C@H](CCC(N)=O)NC(=O)[C@@H](NC(=O)[C@H](C)NC(=O)[C@H](CC(C)C)NC(=O)[C@@H]1CCCN1C(=O)[C@H](Cc1ccccc1)NC(=O)[C@H](CO)NC(=O)[C@H](C)NC(=O)[C@H](Cc1ccc(O)cc1)NC(=O)CNC(=O)[C@H](CO)NC(C)=O)C(C)C)C(C)C)C(=O)N[C@@H](C)C(=O)N[C@@H](CC(C)C)C(=O)N[C@@H](C)C(=O)N[C@@H](CCCNC(=N)N)C(=O)N[C@@H](CC(C)C)C(=O)N[C@@H](Cc1ccc(O)cc1)C(=O)N[C@@H](Cc1ccc(O)cc1)C(=O)N[C@@H](CCCCN)C(=O)N[C@H](C(=O)N[C@@H](CO)C(N)=O)[C@@H](C)O [JBT0671 | 2019] (Ac-SGYASFPLAVQAHVSKRSKEMALARLYYKTS-NH2) in this work.
